Measurements reported in US20230080054A1 (ILDONG PHARMACEUTICAL CO., LTD., priority 2021, published 2023).

Legend:
human ANO6 = biological target: T1, human ANO6 (Homo sapiens, UniProt Q4KMQ2); test: LACT C2 assay (phosphatidylserine scramblase function assay); assay type: cell-based; details: FRT cells expressing human ANO6, 10 μM ionomycin; for inhibition at 0.1 µM: test compound 100 nM, read-out: Inhibition Level 100 nM; for inhibition at 1 µM: test compound 1 μM, read-out: Inhibition Level 1 μM
T1 construct: expressed in transfected cells
T1 sequence (Q4KMQ2 1-931 isoform Q4KMQ2-2): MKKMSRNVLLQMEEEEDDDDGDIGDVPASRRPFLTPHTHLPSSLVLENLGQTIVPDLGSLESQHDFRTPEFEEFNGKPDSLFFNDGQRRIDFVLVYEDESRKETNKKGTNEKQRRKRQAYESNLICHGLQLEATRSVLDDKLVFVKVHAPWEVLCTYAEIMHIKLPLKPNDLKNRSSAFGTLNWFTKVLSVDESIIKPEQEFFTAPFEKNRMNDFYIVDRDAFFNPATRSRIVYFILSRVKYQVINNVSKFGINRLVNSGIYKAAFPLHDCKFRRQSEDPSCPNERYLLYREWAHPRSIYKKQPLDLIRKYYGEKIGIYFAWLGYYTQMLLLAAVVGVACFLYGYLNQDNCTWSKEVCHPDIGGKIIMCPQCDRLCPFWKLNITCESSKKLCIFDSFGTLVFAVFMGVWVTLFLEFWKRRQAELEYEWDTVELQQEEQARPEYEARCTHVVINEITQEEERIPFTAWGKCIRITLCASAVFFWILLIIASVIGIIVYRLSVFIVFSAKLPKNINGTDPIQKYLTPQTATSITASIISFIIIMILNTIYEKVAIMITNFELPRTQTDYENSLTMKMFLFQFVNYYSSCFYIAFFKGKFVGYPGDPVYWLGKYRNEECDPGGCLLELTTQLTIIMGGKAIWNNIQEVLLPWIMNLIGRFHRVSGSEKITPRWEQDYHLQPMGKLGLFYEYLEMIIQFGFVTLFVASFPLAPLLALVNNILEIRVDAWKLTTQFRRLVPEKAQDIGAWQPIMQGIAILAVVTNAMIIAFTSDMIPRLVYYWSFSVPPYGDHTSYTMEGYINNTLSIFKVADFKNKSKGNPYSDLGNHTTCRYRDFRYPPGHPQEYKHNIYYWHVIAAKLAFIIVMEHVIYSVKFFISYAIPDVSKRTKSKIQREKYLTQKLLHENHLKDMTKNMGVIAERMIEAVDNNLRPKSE
In short: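 FRT cells stably expressing human ANO6 were pretreated with compound (1% DMSO) for 10 min, then stimulated with 10 μM ionomycin for 10 min. Surface phosphatidylserine was stained with 500 nM Lact-C2-GFP and quantified by imaging. Inhibition was scaled between unstimulated (100%) and ionomycin-only (0%) controls, averaged over triplicates.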

[1] = system: platelet-rich plasma (PRP); test: Recalcification time of rat platelet-rich plasma; details: 30 μM, vs 2% DMSO control
Experimental: Example 5: Recalcification Time
(§1) 1. Materials and Instruments
Isoflurane (Hana Pharm, cat. #9008), Isotonic Sodium Chloride Injection (Daihan Pharm, cat. #331), Citrate-dextrose solution (Sigma-Aldrich, cat. #C3821), Calcium chloride solution (Sigma-Aldrich, cat. #21115), 22G Syringe 10 mL (Koreavaccine), Dimethyl sulfoxide (Sigma-Aldrich, cat. #D5879), Apixaban (AK scientific, cat. #X1060), 96 Well Cell Culture Plates (SPL Life Sciences, cat. #30096), Synergy H4 Hybrid Microplate Reader (BioTek), Combi R515 Multi-purpose Centrifuge (Hanil Scientific), BS-06 Shaking & Heating Baths (JEIO TECH), and PST-60HL-4 Plate Shaker-Thermostat (Bio-San)
Seven-week-old male SD Rat (ORIENT BIO.) were maintained under controlled conditions of temperature (22±2° C.) and 12-h light/12-h dark cycle. Rats were housed in the pathogen-free facility of the Laboratory Animal Research Center in Ildong Pharmaceutical Co. Ltd. All procedures on animals were conducted in accordance with the relevant national regulatory guidelines and individual experiments approved by the Ildong Pharmaceutical Co. Ltd., Institutional Animal Care and Use Committee (IACUC) (approval No.: A2106-3, 2108-4).
The ability of test compounds to interfere with plasma coagulation, in the presence of platelets, was analyzing by measuring the recalcification time of rat plasma. The blood of animals was collected into 15 mL tubes containing Citrate-dextrose solution (9:1 v/v) before performing the assays. For recalcification time, platelet-rich plasma (PRP) samples were obtained by centrifugation at 360×g for 10 minutes. And the PRP were preincubated for 5 minutes (37° C.). In a 96 well microplate, test compounds (2 μL) were treated in 98 μL of platelet rich plasma. After mixing with a pipette, it was incubated at 37° C. for 15 minutes. The reaction was started by addition of 200 μL of pre-warmed CaCl2) (16 mM). Immediately, put the microplate in a microplate reader and the signals were measured by the following steps.
(1) 405 nm wavelength absorbance signals were recorded in every 10 seconds at 37° C.
(2) Basal absorbance signals were recorded for 0 second.
The signal variance of each of the test compounds was obtained by the following step.
(1) Background signals (t=O) were subtracted from recording values, and the resulting values were converted to change values. The values at 0 second were set to be zero.
The retardation time of test compound were calculated by the following formula:
Retardation time (sec)=[log EC50 (test sample)−log EC50 (DMSO control)]
As described above, a DMSO control group is a group to which 2% DMSO was treated.
The assay result is shown in Table 5, where compounds (30 μM) having less than 20 seconds of retardation time are marked by ‘C’; the compounds (30 μM) having retardation time of 20 seconds or more to less than 50 seconds are marked by ‘B’; and the compounds (30 μM) having retardation time of 50 seconds or more are marked by ‘A’.

citrated human blood = test: NATEM (ROTEM thromboelastometry, blood clot formation); details: 100 μM, 2% v/v DMSO, 15 min preincubation
Experimental: as §1
Star-TEM reagent (TEM International GmbH, cat. #000503-01), Dimethyl sulfoxide (Sigma-Aldrich, cat. #D2438), Cleancle normal saline (JW Pharm), and ROTEM® delta system (TEM International GmbH).
Human blood research was experimented after approval from the Yonsei University Institutional Review Board (IRB) in accordance with the Life Ethics and Safety Act.
Blood samples for NATEM were kept at room temperature, and all NATEM analyses were performed at 37° C. NATEM was carried out using 300 μL of citrated human blood preincubating with test compounds (100 μM, 2% v/v DMSO) for 15 minutes in cuvette and […] with Star-TEM reagent according to the manufacturer's manual (ROTEM; Tem International GmbH, Munich, Germany). After addition of the star-TEM reagent, cuvettes were measured by ROTEM® delta system. Blood clot formation was evaluated.
The obtained parameters were time to clot initiation (Clotting Time, CT), time to clot formation, α angle for clot growth kinetics (initial rate of fibrin polymerization), amplitude (firmness) at 10 minutes, maximum clot firmness, and maximum lysis.

| Structure (SMILES) | inhibition at 0.1 µM (human ANO6) | Inhibition Level (retardation time, recalcification time) [1] | A10, amplitude (firmness) at 10 minutes (citrated human blood) | CFT, clot formation time (citrated human blood) | CT, clotting time (citrated human blood) | MCF, maximum clot firmness (citrated human blood) | ML, maximum lysis (citrated human blood) | α, α-angle (citrated human blood) | inhibition at 1 µM (human ANO6) |
| --- | --- | --- | --- | --- | --- | --- | --- | --- | --- |
| O=C(N[C@@H]1C[C@H]1c1ccccc1)c1cccc(Nc2ccc(-c3ccncn3)cc2)c1 [Compound 174, N-((1R,2S)-2-phenylcyclopropyl)-3-((4-(pyrimidin-4-yl)phenyl)amino)benzamide] | ≥ 60% | B (the compounds (30 μM) having retardation time of 20 seconds or more to less than 50 seconds) | 45 mm | 180 s | 665 s | 56 mm | 2% | 57 ° |  |
| O=C(N[C@@H]1C[C@H]1c1ccccc1)c1cccc(Nc2ccc(-c3ccccn3)cc2)c1 [Compound 155, N-((1R,2S)-2-phenylcyclopropyl)-3-((4-(pyridin-2-yl)phenyl)amino)benzamide] | ≥ 60% | A (the compounds (30 μM) having retardation time of 50 seconds or more) | 45 mm | 168 s | 616 s | 57 mm | 2% | 59 ° | ≥ 60% |
| O=C(Nc1cccc([N+](=O)[O-])c1)c1cccc(Nc2ccc(-c3cccc(F)c3)cn2)c1 [Compound 141, 3-((5-(3-fluorophenyl)pyridin-2-yl)amino)-N-(3-nitrophenyl)benzamide] | ≥ 60% | A (the compounds (30 μM) having retardation time of 50 seconds or more) |  |  |  |  |  |  | ≥ 60% |
| O=C(Nc1cccc(F)c1)c1cccc(Nc2ccc(-c3cccnc3)cc2)c1 [Compound 160, N-(3-fluorophenyl)-3-((4-(pyridin-3-yl)phenyl)amino)benzamide] | ≥ 60% | B (the compounds (30 μM) having retardation time of 20 seconds or more to less than 50 seconds) |  |  |  |  |  |  | ≥ 60% |
| O=C(Nc1cccc(F)c1)c1cccc(Nc2ccc(-c3ccccn3)cc2)c1 [Compound 154, N-(3-fluorophenyl)-3-((4-(pyridin-2-yl)phenyl)amino)benzamide] | ≥ 60% | A (the compounds (30 μM) having retardation time of 50 seconds or more) |  |  |  |  |  |  | ≥ 60% |
